From patent US10854312B2, “Selective peptide antagonists” (BIONIZ, LLC, priority 2013, dated 2020)
Entries after “also recorded” stand apart in the source; their conditions may differ. No end group written: not given here.

Experiments:
human IL-9 = experiment: NK92 cell proliferation assay (WST-1), IL-9; assay type: cell-based; conditions: 24 h
Method: Human peripheral blood mononuclear cells were purified by the Ficoll-paque gradient centrifugation (GE-Healthcare) and stimulated by PHA (5 μg ml^−1, Sigma) for 48 h, then expanded with IL-2 (0.5 nM, Peprotech) for 48h, and then depleted of non-T cells by the Pan-T cell negative enrichment Ab cocktails (Miltenyi). The purified T cells were then fasted of IL-2 overnight prior to the proliferation assay by the tetrazolium dye method. Four hundred thousand cells (in 200 μl culture) were incubated with the cytokines and BNZ132-1 at the indicated concentrations for 24 h, and 20 μl WST1 reagent (Clontech) was added to each well. After 12 h incubation, OD450 was measured. The assay was performed in triplicate. […] NK 92 cells were cultured in human IL-2. Cells were washed to withdraw IL-2 for overnight and two hundred thousand cells (in 200 μl volume) were incubated with the indicated concentrations of the cytokine and BNZ132-1 for 24 h before 20 μl WST-1 reagent (Clontech) was added to each well to measure proliferative response. Absorbance at 450 nm was read at 6 h after the addition of the WST-1 dye. The assay was performed in triplicate. The assay was performed in triplicate and the figure represents a typical result out of 5 different HAM-TSP patients.

HAM/TSP T cells = experiment: Spontaneous ex vivo proliferation of HAM/TSP patient lymphocytes (thymidine incorporation); assay type: cell-based, human; conditions: 5 days culture without exogenous cytokines; BNZ132-1 1 μM or 3 and 0.3 μM; mABs 5 mg/ml each
Method: FIG. 7A, and FIG. 7B present effective inhibition of a combined function of target γc-cytokines by BNZ132-1. […] Human Peripheral T cells were prepared as described in the methodology section. Four hundred thousand cells (in 200 μl culture) were incubated with the cytokines and BNZ132-1 at the indicated concentrations for 24 h, and cellular proliferation was determined by the […] using the WST-1 reagent (Clontech). The Y-axis represents the OD450 values. The p values; 1 nM cytokine combination-No inhibition vs. anti-IL-2; 0.33, No inhibition vs. anti-IL-15; 0.13, No inhibition vs. anti IL-2+IL-15; 0.003. No inhibition vs. BNZ132-1; 0.021. 0.1 nM cytokine combination-No inhibition vs. anti-IL-2; 0.046, No inhibition vs. anti-IL-15; 0.057, No inhibition vs. anti IL-2+IL-15; 0.001, No inhibition vs. anti IL-2+15; 0.001, No inhibition vs.BNZ132-1; 0.001. The assay was performed in triplicate. […] Peripheral blood mononuclear cells were purified from the blood of a HAM-TSP patient and set up for a spontaneous proliferation assay as previously described36. The cellular proliferation was measured by the thymidine incorporation assay. The Y-axis represents the cpm values. Doses are on the X-axis; BNZ132-1, 3 and 0.3 μM. Antibodies against IL-2 or IL-15 (1 and 10 μg ml-1 of each, R & D Systems). […]

mouse IL-4 signal = experiment: Western blot of phosphorylation downstream of IL-4 in PT-18 cells; assay type: cell-based; conditions: 1 nM mouse IL-4, excess dose of BNZ132-1, 15 min
Method: PT-18 cells32 were fasted of IL-3 for 12 h prior to stimulation. Cells were stimulated with 1 nM mouse IL-4 or mouse IL-9 in the presence or absence of excess dose of BNZ132-1 ([…]) for 15 min and then cellular proteins were extracted. Phosphorylation of the indicated proteins was detected using phosphor-specific antibodies (Cell signaling), followed by ECL. IL-4 is the only γc-cytokine that induces the phosphorylation of STAT6. Note that only IL-4, but not IL-9, induced the tyrosine-phosphorylation of STAT6. […] Lanes: 1. no stimulation, 2. IL-4, 3. IL-4+BNZ132-1, 4. IL-9, 5. IL-9+BNZ132-1

mouse IL-3 = mouse IL-3 (Mus musculus, UniProt P01586); experiment: PT-18β proliferation assay (3H-thymidine), non-γc cytokine IL-3; assay type: cell-based; conditions: 1 nM mouse IL-3, 15 μM BNZ132-1

With IKEFLQRFIHIVQSIINTS [BNZ132-1] the “inhibition of IL-9-induced proliferation of NK92 cells” value (human IL-9) was “dose-dependent inhibition”, the “inhibition of spontaneous ex vivo proliferation of HAM/TSP T cells” value (HAM/TSP T cells) was “as effective inhibition as combined anti-IL-2 and anti-IL-15 mABs; also recorded: Efficient inhibition” and the “inhibition of IL-4 signal transduction (phosphorylation, STAT6)” value (mouse IL-4 signal) was “does not interfere; also recorded: not inhibited”. For the same sequence, the “inhibition of IL-3-induced proliferation of PT-18β cells” value (mouse IL-3) was “did not inhibit; also recorded: no inhibition; also recorded: no inhibition of non-γc cytokines”.
